Entries after “also recorded” stand apart in the source; their conditions may differ. Where a SMILES comes first, the peptide text is derived from it. [ ]: non-standard residue; d: D form. The star is where a group is joined. Sta = CC(C)C[C@H](N)[C@@H](O)CC(=O)O; Isovaleryl = CC(C)CC(=O)*; 4Abz = Nc1ccc(C(=O)O)cc1; Cbz = O=C(OCc1ccccc1)*; CH2Cl = ClC*; NHOH = ON*
Assays:
[1] = tested on: CD62L shedding; test: Soluble CD62L ELISA, anti-CD3/PHA stimulated PBMC or CD4 T cells; format: cell-based, human; conditions: for inhibition at 10 µM: Homo sapiens; for inhibition at 10 µM / Shedding inhibition Stimulated: 10 μM compound, stimulated cells; for inhibition at 10 µM / Shedding inhibition Stimulated / effect on CD62L shedding / soluble CD62L: ELISA; for effect on CD62L shedding from stimulated PBMC: titration of HAART compounds, concentration range tested; for effect on CD62L shedding / soluble CD62L: stimulated PBMC or CD4 T cells
Description: PBMC from de-identified healthy donors were obtained with informed consent from the Department of Transfusion Medicine, National Institutes of Health under Biological reagent Registry RD-14-IX-12 approved by NIH biological safety board. […] IL-2 was added at a final concentration of 20 U/mL. CD3 antibody okt3 was used at ~0.2 μg/mL final concentration. […] Supernatants were collected and assessed using either the CD62L or TNF-α Duo Set ELISA kit according to manufacturer’s instructions (R&D Systems, Inc.). The viability of cells treated with compounds was assessed by acridine orange / propidiom iodide (AO/PI Logosbio catalog F23001) staining using Luna-FL cell counter following the manufacture’s instruction.^2

[2] = tested on: HIV-1BAL; test: HIV-1BAL infection of CD8-depleted PBMC, FACS (intracellular p24, CD4, CD62L); format: cell-based; conditions: for effect on HIV-1BAL infection (intracellular p24): day 7 post infection, compounds at 100 μM, GI254023X at 250 μM
Source text: The use of healthy human peripheral blood mononuclear cells (PBMC) is approved by the Department of Transfusion Medicine at the Clinical Center of National Institutes of Health. The use of PBMC from HIV-1 infected individuals for the study was approved under protocol #02-I-0202 by the Institutional Review Board (IRB) of National Institutes of Health with written informed consent from all donors. Peripheral blood mononuclear cells (PBMCs) from anonymous healthy donors were isolated by Ficoll-Paque gradient, and cultured in RPMI 1640 supplemented with 10% FBS, 1%Penicillin/streptomycin, 1% HEPES buffer and 20 U/mL IL-2 (culture media); and stimulated with 0.2 μg/mL anti-CD3 antibody (okt3) for 2 days. CD8^+ T cells were depleted prior to infection using the Stemcell CD8 positive selection kit according to manufacturer’s instructions. CD8-depleted PBMCs were plated at 2×10^6 cells/ml in 48-well plates in 1 mL culture media with various inhibitors for 60 min prior to the addition of ~80 TCID50 HIV-1BAL or HIV-1LAI. Inhibitors were replenished during media change every 3 days. The infections were proceeded with or without inhibitors for 6 days or otherwise specified number of days and then analyzed by FACS staining using fluorescent labeled CD4-BV510, CD62L-APC and CD3-PEC7 antibodies (BD Biosciences). Cells were then washed and permeabilized with CytoFix/CytoPerm (BD Biosciences) solution before intracellular staining for HIV p24 antigen using FITC conjugated anti-p24 antibody clone KC57 (Beckman Coulter, catalog 6604665). All assays were performed with cell viabilities >80%. Replication competent HIV-1 viruses were obtained from the NIH AIDS Reagent Program^4, and expanded by infecting activated CD8-depleted PBMCs, and TCID50 was determined by p24 ELISA.

Row | Compound | inhibition at 10 µM [1] [%] | Shedding inhibition Stimulated [1] | also measured
1 | CC(C)ON([C@@H](C(=O)NO)C(C)C)S(=O)(=O)c1ccc(-c2ccccc2)cc1 [ARP 101, (2R)-2-[([1,1′-Biphenyl]-4-ylsulfonyl)(1-methylethoxy)amino]-N-hydroxy-3-methyl-butanamide] | < 20 |  | 
2 | CC(C)C[C@H](NC(=O)[C@@H](O)[C@H](N)Cc1ccccc1)C(=O)O [Bestatin] | 0 |  | 
3 | CC[C@H](C)[C@H](NC(C)=O)C(=O)N[C@@H](CCC(=O)O)C(=O)N[C@H](C(=O)N[C@H](C=O)CC(=O)O)[C@@H](C)O [GrzB II] (Ac-IETD-aldehyde) |  | − (0% inhibition) | 
4 | O=S(=O)(F)Cc1ccccc1 [PMSF] |  | − (0% inhibition) | 
5 | O=S(=O)(CC1CS1)c1ccc(Oc2ccccc2)cc1 (stereo not drawn) [SB-3CT] |  | − (0% inhibition) | 
6 | NCCc1ccc(S(=O)(=O)F)cc1 [AEBSF] |  | − (0% inhibition) | 
7 | CC[C@H](C)[C@H](NC(C)=O)C(=O)N[C@@H](CCC(=O)O)C(=O)N1CCC[C@H]1C(=O)N[C@H](C=O)CC(=O)O [GrzB IV] (Ac-IEPD-aldehyde) |  | − (0% inhibition) | 
8 | CC(C)C[C@H](CC(=O)NO)C(=O)N[C@@H](Cc1ccc2ccccc2c1)C(=O)N[C@@H](C)C(=O)NCCN [TAPI-1] |  | ++ (>50%) | 
9 | CC(C)C[C@@H](NC(=O)[C@@H]1CCCN1C(=O)CNC(=O)c1ccc(N)cc1)C(=O)N[C@@H](C)C(=O)NO [Compound 4-m-GPDLA, 4-aminobenzoyl-Gly-Pro-D-Leu-ala hydroxamic acid] (H-[4Abz]GP[dL]A-{NHOH}) |  | − (0% inhibition) | 
10 | C[C@H]1c2cccc(O)c2C(=O)C2=C(O)[C@]3(O)C(=O)C(C(N)=O)=C(O)[C@@H](N(C)C)[C@@H]3[C@@H](O)[C@@H]21 [Doxycycline] | 0 |  | 
11 | Aprotinin |  | − (0% inhibition) | 
12 | CCCC(C)NC(=O)c1ccc(Cl)c(Cl)c1 (stereo not drawn) [NSC405020, 3,4-Dichloro-N-(1-methylbutyl)-benzamide] | 0 |  | 
13 | CC(C)(NS(=O)(=O)c1ccc(Oc2ccc(F)cc2)cc1)C(=O)NO [CP-471474, 2-[[[4-(4-Fluorophenoxy)phenyl]sulfonyl]amino]-N-hydrox y-2-methylpropanamide] | 0 |  | 
14 | C[C@@H]1CCO[C@H]2Cn3cc(C(=O)NCc4ccc(F)cc4F)c(=O)c(O)c3C(=O)N12 [Doultegravir] |  |  | p24 staining in HIV-1BAL infection of PBMC ([2]; day 6, 0.5μM compounds): no significant staining
15 | COc1ccc(S(=O)(=O)N(CC(=O)NO)CC(C)C)cc1 [NNGH, N-Isobutyl-N-(4-methoxyphenylsulfonyl)glycyl hydroxamic acid] |  | − (0% inhibition) | 
16 | N=C(N)c1ccc2cc(OC(=O)c3ccc(N=C(N)N)cc3)ccc2c1 [Nafamostat] | 0 |  | 

Row | Compound | inhibition at 10 µM [1] [%] | Shedding inhibition Stimulated [1] | also measured
17 | CC(C)C[C@H](CC(=O)NO)C(=O)N[C@@H](Cc1ccc2ccccc2c1)C(=O)N[C@@H](C)C(N)=O [TAPI-0] |  | ++ (>50%) | accumulation of infected CD4−/CD62L− T cells (loss of CD62L) ([2]; HIV-1BAL infected cells): did not inhibit the accumulation; effect on HIV-1BAL infection (intracellular p24) [2]: fail to significantly suppress the viral infections
18 | CC1(c2ccccc2)NC(=O)NC1=O (stereo not drawn) [Compound 5-m-5-p, 5-methyl-5-phenylhydantoin] | 0 |  | 
19 | C[C@H](NC(=O)OCc1ccccc1)C(=O)N[C@@H](C)C(=O)N[C@@H](CC(=O)O)C(=O)CCl [GrzB I] (Cbz-Ala-Ala-Asp-CH2Cl) |  | − (0% inhibition) | 
20 | Cystatin |  | − (0% inhibition) | 
21 | CC(C)(C)OC(=O)N[C@H]1[C@@H]2CNC[C@@H]21 [CP-101537, N-(1a,5a,6a)-3-Azabicyclo[3.1.0]hex-6-yl-carbamic acid 1,1-dimethylethyl ester] |  | − (0% inhibition) | 
22 | NC(=O)CI [Iodoacetamide] |  | − (0% inhibition) | 
23 | CC(C)[C@H](NS(=O)(=O)c1ccc(-c2ccc(Br)cc2)cc1)C(=O)O [PD166793, (S)-2-(4′-Bromo-biphenyl-4-sulfonylamino)-3-methyl-butyric acid hydrate] | 0 |  | 
24 | CC(C)C[C@H](CC(=O)NO)C(=O)N[C@H](C(=O)N[C@@H](C)C(=O)NCCN)C(C)(C)C [TAPI-2] |  | ++ (>50%) | 
25 | CC(C)C[C@H](NC(=O)[C@H]1O[C@@H]1C(=O)O)C(=O)NCCCCN=C(N)N [Compound E64] |  | − (0% inhibition) | 
26 | CC(C)CC(=O)N[C@H](C(=O)N[C@H](C(=O)N[C@@H](CC(C)C)[C@@H](O)CC(=O)N[C@@H](C)C(=O)N[C@@H](CC(C)C)[C@@H](O)CC(=O)O)C(C)C)C(C)C [Pepstatin A] (Isovaleryl-VV[Sta]A[Sta]-OH) | 0 |  | 
27 | OB(O)c1ccc2[nH]ccc2c1 [Compound 5-Indolylb, 5-indolylboronic acid] | 0 |  | 
28 | Cc1ccnc2c1NC(=O)c1cccnc1N2C1CC1 [nevirapine] |  |  | effect on CD62L shedding from stimulated PBMC [1]: did not inhibit CD62L shedding
29 | Cc1nnc(C(=O)NC(C)(C)c2nc(C(=O)NCc3ccc(F)cc3)c(O)c(=O)n2C)o1 [raltegravir] |  |  | effect on CD62L shedding from stimulated PBMC [1]: did not inhibit CD62L shedding
30 | TAPI |  |  | effect on CD62L shedding / soluble CD62L [1]: suppressed CD62L shedding
31 | O=c1oc(Cl)c(Cl)c2ccccc12 [3,4-DCIC, 3,4-Dichloroisocouman] |  | − (0% inhibition) | effect on HIV-1BAL infection (intracellular p24) [2]: did not enhance HIV-1 infection; effect on CD62L shedding / soluble CD62L [1]: significantly increased soluble CD62L concentration; also recorded: enhanced CD62L shedding
32 | CC(=O)N[C@@H](CC(C)C)C(=O)N[C@@H](CC(C)C)C(=O)N[C@H](C=O)CCCNC(=N)N [Leupeptin] | 0 |  | 

From paper PMC10987949, “Inhibition of HIV-1 release by ADAM metalloproteinase inhibitors” (Frontiers in Microbiology, 2024)
